Legend:
[1] = Persistence in plasma: incubation with human plasma at 37° C., LC-MS/MS; type: in vitro ADME; details: for Peak Area Ratio (Analyte/incubation sample): Human Plasma
Experimental: Test compounds and control (procaine) were incubated at a concentration of 10 μM with human plasma. […]
After quenching by acetonitrile, the plates were capped, vortexed, and centrifuged at 3000 rpm for 10 minutes. The supernatant was injected into LC-MS/MS.

[2] = Persistence control: incubation in PBS buffer (pH 7.4) at 37° C., LC-MS/MS; type: physicochemical; details: for Peak Area Ratio (Analyte/incubation sample): PBS Buffer, 24 hr; for % Remaining after 24-hr Incubation at 37° C.: PBS buffer
[3] = regardless of pH; cited from earlier work
CYP1A2 = target: T1, CYP1A2 (Homo sapiens, UniProt P05177); details: cited from earlier work
T1 sequence (P05177 1-516): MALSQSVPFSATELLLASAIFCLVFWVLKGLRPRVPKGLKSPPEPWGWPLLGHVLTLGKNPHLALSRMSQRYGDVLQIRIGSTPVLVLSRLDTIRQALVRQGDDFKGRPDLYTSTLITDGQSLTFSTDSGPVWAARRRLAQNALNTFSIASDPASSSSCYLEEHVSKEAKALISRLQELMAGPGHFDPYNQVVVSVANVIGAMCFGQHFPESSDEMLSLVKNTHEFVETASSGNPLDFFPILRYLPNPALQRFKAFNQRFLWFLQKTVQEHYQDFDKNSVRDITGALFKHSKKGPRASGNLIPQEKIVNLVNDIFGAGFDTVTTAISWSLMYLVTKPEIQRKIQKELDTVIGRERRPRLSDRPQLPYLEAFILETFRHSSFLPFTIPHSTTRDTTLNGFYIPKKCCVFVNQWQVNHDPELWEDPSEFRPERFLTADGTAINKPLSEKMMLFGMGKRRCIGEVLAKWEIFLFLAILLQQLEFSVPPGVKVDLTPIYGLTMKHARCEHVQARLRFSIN

CYP3A = details: cited from earlier work

CCN(CC)CCOC(=O)c1ccc(N)cc1 [Procaine, procaine]
Peak Area Ratio (Analyte/incubation sample) ([1]; 0 hr, Replicate 1): 0.311 | Peak Area Ratio (Analyte/incubation sample) ([1]; 0 hr, Replicate 2): 0.451 | Peak Area Ratio (Analyte/incubation sample) ([1]; 24 hr, Replicate 1): 0.0 | Peak Area Ratio (Analyte/incubation sample) ([1]; 24 hr, Replicate 2): 0.0 | % Remaining after 24-hr Incubation at 37° C. ([1]; human, plasma, 24 h, 10 μM): 0.0% | Peak Area Ratio (Analyte/incubation sample) ([2]; Replicate 1): 0.413 | Peak Area Ratio (Analyte/incubation sample) ([2]; Replicate 2): 0.419 | % Remaining after 24-hr Incubation at 37° C. ([2]; Average): 109% | % Remaining after 24-hr Incubation at 37° C. ([2]; Replicate 1): 108.40% | % Remaining after 24-hr Incubation at 37° C. ([2]; Replicate 2): 109.97%

Nc1cccc2c1C(=O)N(C1CCC(=O)NC1=O)C2=O (stereo not shown) [pomalidomide]
solubility [3]: about 0.01 mg/mL | substrate of CYP1A2 liver enzyme (CYP1A2): substrate | substrate of CYP3A liver enzyme (CYP3A): substrate
